From PMC5769417, “Single- and Multiple-Dose Trials to Determine the Pharmacokinetics, Safety, Tolerability, and Sex Effect of Oral Ginsenoside Compound K in Healthy Chinese Volunteers” (Frontiers in Pharmacology, 2018)
Several values for one entry are separate records, joined by “and”; a condition that tells them apart may be missing. Equal values may be shown once. Read-outs that look alike come from different tables or passages of the source.

Assay: Multiple-dose trial, plasma pharmacokinetics
Type: in vivo, human
Conditions: for Accumulation index: 1/(1 − e^−Kτ); for MRT last / AUC / concentration at 15 day: both sexes, human, plasma; for AUC: Day 15, read-out: AUCτ (zero to 24 h); for concentration at 15 day: Day 15, steady state, read-out: Cmin
Experimental: Multiple-dose pharmacokinetics: […] Multiple-dose pharmacokinetics: […] All samples were preserved at −70°C and analyzed with a LC-MS/MS (API 4000 LC-MS/MS, ABI Company, Foster City, CA, USA) at the Institute of Clinical Pharmacology, Central South University (Changsha, China). […] An aqueous solution of a stable internal standard (IS for CK: digoxin, Shijiaoke Biological Technology Co. Ltd., Beijing, China; IS for PPD: coumarin, Sigma-Aldrich, St. Louis, USA) and 1 M phosphate buffer were added to 0.5 ml of thawed sample, and analytical standards and quality control (QC) samples were prepared in the same matrix. All samples were treated with 2 ml of methyl tert-butyl ether (MTBE, CNW technologies GmbH, Duesseldorf, Germany) to precipitate the bulk of plasma proteins. After mechanical shock by mixing for 10 min and a subsequent centrifugation (4,000 rpm, 4°C, 10 min), 1.4 ml of the supernatant was transferred and blow-dried with nitrogen in a water bath at 40°C. Lastly, the residue was dissolved in 100 μl of mobile phase and then was subjected to a mechanical shock by mixing, and centrifuged. The supernatant was subsequently injected into the column for analysis. […] Accuracy and precision of the assay were determined by evaluating the performance of the assay controls. Over the quantification range, the accuracy of the QC samples varied from 85 to 115% and the intra- and inter-assay imprecision was <15%. […] The area under the curve (AUC) from time zero to the last time point (AUClast) and the AUC extrapolated to infinity (AUCinf) were calculated using the linear trapezoidal rule. The slope (elimination rate constant, K) of the terminal phase of the plasma concentration-time profile was determined, using a weighting factor of 1, by the method of least squares (log-linear regression of at least three data points). The t1/2 was estimated as (ln2)/K. […] The apparent volume of distribution (V/F) was equal to (CL/F)/K. The mean residence time (MRT) was calculated as the area under the first moments curve (AUMC) divided by AUC. The dose-normalized PK parameters e.g., Cmax/D and AUClast/D, were obtained by dividing each PK result by the administered dose. The cumulative excretion rate was calculated as the amount of unchanged drug in the urine over a time interval divided by the dose and was expressed as thousand points (‰). On day 15 in the multiple-dose trial, the PK parameters, such as t1/2, CL/F, and V/F at steady state were calculated using the same method as that used for the single-dose trial. In addition, the Tmax at steady state (Tmax,ss), Cmax at steady state (Cmax,ss), and Cmin,ss were obtained from experimental observation after the steady state during the multiple-dose trial. […] The average steady-state drug concentration (Cavg) is calculated as AUCτ/τ, and the fluctuation ratio was calculated as (Cmax,ss − Cmin,ss)/Cavg. The accumulation index was calculated using dosing interval and elimination rate constant as in the following equation: 1/(1 − e^−Kτ).

[1] = 100 mg oral after breakfast, Day 1
[2] = 100 mg qd oral after breakfast, Day 15
[3] = 200 mg oral after breakfast, Day 1
[4] = 200 mg qd oral after breakfast, Day 15
[5] = 400 mg oral after breakfast, Day 1
[6] = 400 mg qd oral after breakfast, Day 15

## CC(C)=CCC[C@](C)(OC1O[C@H](CO)[C@@H](O)[C@H](O)[C@H]1O)[C@H]1CC[C@]2(C)[C@@H]1[C@H](O)C[C@@H]1[C@@]3(C)CC[C@H](O)C(C)(C)[C@@H]3CC[C@]12C (stereo partly drawn) [CK, 20-O-beta-D-glucopyranosyl-20(S)-protopanaxadiol]
[1]
  CL/F: 11.6 ± 3.0 l·h ^−1
  V/F: 402 ± 54 L
  MRT last: 12.2 ± 1.4 h
[2]
  AUMCτ (zero to 24 h): 60141.5 ± 17696.2 ng·h/mL
  CL/F: 13.4 ± 3.6 l·h ^−1
  Fluctuation: 259.42% and 259.42 ± 48.85%
  V/F: 661 ± 242 L
100 mg qd
  Accumulation index: 2.62 and 2.62 ± 0.62
[3]
  CL/F: 9.6 ± 3.1 l·h ^−1
  V/F: 326 ± 137 L
  MRT last: 12.6 ± 1.6 h
[4]
  AUMCτ (zero to 24 h): 179177.1 ± 49122.9 ng·h/mL
  CL/F: 8.6 ± 2.5 l·h ^−1
  Fluctuation: 289.25% and 289.25 ± 35.75%
  V/F: 455 ± 152 L
200 mg qd
  Accumulation index: 2.78 and 2.78 ± 0.73
[5]
  CL/F: 9.4 ± 2.4 l·h ^−1
  V/F: 358 ± 118 L
[6]
  AUMCτ (zero to 24 h): 306621.5 ± 78711.0 ng·h/mL
  CL/F: 10.3 ± 3.0 l·h ^−1
  Fluctuation: 273.98% and 273.98 ± 37.16%
  V/F: 514 ± 188 L
400 mg qd
  Accumulation index: 2.60 and 2.60 ± 0.31
100–400 mg qd
  accumulation index range: 2.60–2.78
Day 1, Female
  AUCinf/D, dose-normalized AUCinf: 116.58 ± 28.07^* h·ng·ml^−1·mg^−1
  AUClast/D, dose-normalized AUClast: 114.23 ± 27.97 ng·h/mL/mg
  Cmax/D, dose-normalized Cmax: 14.49 ± 4.07 ng/mL/mg
Day 1, Male
  AUCinf/D, dose-normalized AUCinf: 94.22 ± 24.54 ng·h/mL/mg
  AUClast/D, dose-normalized AUClast: 92.27 ± 24.00 ng·h/mL/mg
  Cmax/D, dose-normalized Cmax: 11.00 ± 4.25 ng/mL/mg
Day 1, all subjects
  AUCinf/D, dose-normalized AUCinf: 105.41 ± 28.29 ng·h/mL/mg
  AUClast/D, dose-normalized AUClast: 103.25 ± 27.94 ng·h/mL/mg
  Cmax/D, dose-normalized Cmax: 12.74 ± 4.46 ng/mL/mg
Day 1, between sexes
  AUCinf/D, GMR (95% CI): 1.25 (1.03–1.51)
  AUClast/D, GMR (95% CI): 1.25 (1.03–1.51)
  Cmax/D, GMR (95% CI): 1.37 (1.04–1.80)
Day 1 vs Day 15
  AUCinf/D, GMR (95% CI): 0.75 (0.64–0.87)
  AUClast/D, GMR (95% CI): 0.79 (0.67–0.91)
  Cmax/D, GMR (95% CI): 1.00 (0.82–1.22)
Day 15, Female
  AUCinf/D, dose-normalized AUCinf: 153.33 ± 30.98 ng·h/mL/mg
  AUClast/D, dose-normalized AUClast: 143.45 ± 29.33 ng·h/mL/mg
  Cmax/D, dose-normalized Cmax: 14.25 ± 3.38 ng/mL/mg
Day 15, Male
  AUCinf/D, dose-normalized AUCinf: 132.87 ± 52.60 ng·h/mL/mg
  AUClast/D, dose-normalized AUClast: 123.74 ± 47.85 ng·h/mL/mg
  Cmax/D, dose-normalized Cmax: 11.18 ± 5.19 ng/mL/mg
Day 15, all subjects
  AUCinf/D, dose-normalized AUCinf: 143.10 ± 43.67 ng·h/mL/mg
  AUClast/D, dose-normalized AUClast: 133.59 ± 40.26 ng·h/mL/mg
  Cmax/D, dose-normalized Cmax: 12.71 ± 4.58 ng/mL/mg
Day 15, between sexes
  AUCinf/D, GMR (95% CI): 1.21 (0.96–1.53)
  AUClast/D, GMR (95% CI): 1.21 (0.96–1.52)
  Cmax/D, GMR (95% CI): 1.36 (1.04–1.76)
100 mg qd oral after breakfast
  AUC: 8000 ± 2320 ng·h/mL
  concentration at 15 day: 333 ± 96.7 ng/mL
200 mg qd oral after breakfast
  AUC: 24700 ± 6290 ng·h/mL
  concentration at 15 day: 1030 ± 262 ng/mL
